Results from ChEMBL document CHEMBL1150678, “Bioactive sterols from the starfish Certonardoa semiregularis” (2003).
Values after ≈ are worked out from the molar mass of the structure shown.

Columns and labels:
Escherichia coli [1] = assay: Antimicrobial activity against Escherichia coli TEM isolate after 18 hrs; type: functional
Escherichia coli [2] = assay: Antimicrobial activity against Escherichia coli 1507E isolate after 18 hrs; type: functional
Pseudomonas aeruginosa [3] = assay: Antimicrobial activity against Pseudomonas aeruginosa 9027 isolate after 18 hrs; type: functional
Salmonella typhimurium = assay: Antimicrobial activity against Salmonella Typhimurium after 18 hrs; type: functional, Salmonella enterica subsp. enterica serovar Typhimurium; settings: Salmonella enterica
Klebsiella oxytoca = assay: Antimicrobial activity against Klebsiella oxytoca 1082E after 18 hrs; type: functional
Klebsiella aerogenes = assay: Antimicrobial activity against Klebsiella aerogenes 1522E after 18 hrs; type: functional
Enterobacter cloacae [4] = assay: Antimicrobial activity against Enterobacter cloacae P99 after 18 hrs; type: functional
Enterobacter cloacae [5] = assay: Antimicrobial activity against Enterobacter cloacae 1321E after 18 hrs; type: functional
Staphylococcus aureus [6] = assay: Antimicrobial activity against Staphylococcus aureus 285 isolate after 18 hrs; type: functional
Escherichia coli [7] = assay: Antimicrobial activity against Escherichia coli DC0 isolate after 18 hrs; type: functional
Escherichia coli [8] = assay: Antimicrobial activity against Escherichia coli 078 isolate after 18 hrs; type: functional
Staphylococcus aureus [9] = assay: Antimicrobial activity against Staphylococcus aureus 503 isolate after 18 hrs; type: functional
Streptococcus pyogenes [10] = assay: Antimicrobial activity against Streptococcus pyogenes 77A isolate after 18 hrs; type: functional
Pseudomonas aeruginosa [11] = assay: Antimicrobial activity against Pseudomonas aeruginosa 1592E isolate after 18 hrs; type: functional
Pseudomonas aeruginosa [12] = assay: Antimicrobial activity against Pseudomonas aeruginosa 1771 isolate after 18 hrs; type: functional
Pseudomonas aeruginosa [13] = assay: Antimicrobial activity against Pseudomonas aeruginosa 1771M isolate after 18 hrs; type: functional
Enterococcus faecium = assay: Antimicrobial activity against Streptococcus faecium MD8b isolate after 18 hrs; type: functional
Staphylococcus aureus [14] = assay: Antimicrobial activity against Staphylococcus aureus SG511 isolate after 18 hrs; type: functional
A549 = assay: Cytotoxicity against human A549 cells; type: functional; settings: read-out: ED50 (the source's name)
SK-OV-3 = assay: Cytotoxicity against human SKOV3 cells; type: functional; settings: read-out: ED50 (the source's name)
SK-MEL-2 = assay: Cytotoxicity against human SK-MEL-2 cells; type: functional; settings: read-out: ED50 (the source's name)
XF498 = assay: Cytotoxicity against human XF498 cells; type: functional; settings: read-out: ED50 (the source's name)
HCT-15 = assay: Cytotoxicity against human HCT15 cells; type: functional; settings: read-out: ED50 (the source's name)
Streptococcus pyogenes [15] = assay: Antimicrobial activity against Streptococcus pyogenes 308A isolate after 18 hrs; type: functional
Escherichia coli [16] = assay: Antimicrobial activity against Escherichia coli DC2 isolate after 18 hrs; type: functional

Structure (SMILES) | MIC (Escherichia coli [1]) [µg/mL] | MIC (Escherichia coli [2]) [µg/mL] | MIC (Pseudomonas aeruginosa [3]) [µg/mL] | MIC (Salmonella typhimurium) [µg/mL] | MIC (Klebsiella oxytoca) [µg/mL] | MIC (Klebsiella aerogenes) [µg/mL] | MIC (Enterobacter cloacae [4]) [µg/mL] | MIC (Enterobacter cloacae [5]) [µg/mL] | MIC (Staphylococcus aureus [6]) [µg/mL] | MIC (Escherichia coli [7]) [µg/mL] | MIC (Streptococcus pyogenes [10]) [µg/mL] | MIC (Pseudomonas aeruginosa [11]) [µg/mL] | MIC (Pseudomonas aeruginosa [12]) [µg/mL] | MIC (Pseudomonas aeruginosa [13]) [µg/mL] | EC50 (A549) [µg/mL] | EC50 (SK-OV-3) [µg/mL] | EC50 (SK-MEL-2) [µg/mL] | EC50 (XF498) [µg/mL] | EC50 (HCT-15) [µg/mL] | MIC (Streptococcus pyogenes [15]) [µg/mL] | other results
CC(C)[C@@H](O)CC[C@@H](C)[C@H]1C[C@@H](O)[C@H]2[C@@H]3C[C@H](O)[C@H]4C[C@@H](O)CC[C@]4(C)[C@H]3CC[C@@]21C [CERTONARDOSTEROL F] | > 25 | > 25 | > 25 | > 25 | > 25 | > 25 | > 25 | > 25 | > 25 | > 25 | 25 (≈ 57.3 µM) | 25 (≈ 57.3 µM) | 25 (≈ 57.3 µM) | > 25 | 3.8 (≈ 8.7 µM) | 4.4 (≈ 10.1 µM) | 3.8 (≈ 8.7 µM) | 4.3 (≈ 9.85 µM) | 5.5 (≈ 12.6 µM) | 25 (≈ 57.3 µM) | MIC (Escherichia coli [8]): > 25 µg/mL; MIC (Staphylococcus aureus [9]): > 25 µg/mL; MIC (Enterococcus faecium): > 25 µg/mL; MIC (Staphylococcus aureus [14]): > 25 µg/mL; MIC (Escherichia coli [16]): > 25 µg/mL
CC(C)[C@@H](O)/C=C/[C@@H](C)[C@H]1C[C@@H](O)[C@H]2[C@@H]3C[C@H](O)[C@H]4C[C@@H](O)CC[C@]4(C)[C@H]3CC[C@@]21C [CERTONARDOSTEROL G] | > 25 | > 25 | > 25 | > 25 | > 25 | > 25 | > 25 | > 25 | > 25 | > 25 | > 25 | > 25 | 12.5 (≈ 28.8 µM) | 25 (≈ 57.5 µM) | 3.6 (≈ 8.28 µM) | 3.6 (≈ 8.28 µM) | 3.4 (≈ 7.82 µM) | 3.7 (≈ 8.51 µM) | 4 (≈ 9.2 µM) | 12.5 (≈ 28.8 µM) | MIC (Escherichia coli [8]): > 25 µg/mL; MIC (Staphylococcus aureus [9]): > 25 µg/mL; MIC (Enterococcus faecium): > 25 µg/mL; MIC (Staphylococcus aureus [14]): > 25 µg/mL; MIC (Escherichia coli [16]): > 25 µg/mL
CC(/C=C/[C@@H](C)[C@H]1C[C@@H](O)[C@H]2[C@@H]3C[C@H](O)[C@H]4C[C@@H](O)CC[C@]4(C)[C@H]3CC[C@@]21C)CO (stereo not given in full) [CERTONARDOSTEROL H] | > 25 | > 25 | > 25 | > 25 | > 25 | > 25 | > 25 | > 25 | > 25 | > 25 | > 25 | > 25 | 25 (≈ 59.4 µM) | 25 (≈ 59.4 µM) | 7.1 (≈ 16.9 µM) | 9.4 (≈ 22.3 µM) | 6.4 (≈ 15.2 µM) | 8.6 (≈ 20.4 µM) | 10.6 (≈ 25.2 µM) | 25 (≈ 59.4 µM) | MIC (Escherichia coli [8]): > 25 µg/mL; MIC (Staphylococcus aureus [9]): > 25 µg/mL; MIC (Enterococcus faecium): > 25 µg/mL; MIC (Staphylococcus aureus [14]): > 25 µg/mL; MIC (Escherichia coli [16]): > 25 µg/mL
CC(/C=C/[C@@H](C)[C@H]1C[C@@H](O)[C@H]2[C@@H]3C[C@H](O)[C@H]4C(O)[C@@H](O)CC[C@]4(C)[C@H]3CC[C@@]21C)CCO (stereo not given in full) [CERTONARDOSTEROL L] |  |  |  |  |  |  |  |  |  |  |  |  |  |  | 4.3 (≈ 9.54 µM) | 6 (≈ 13.3 µM) | 4.3 (≈ 9.54 µM) | 4.5 (≈ 9.99 µM) | 4.2 (≈ 9.32 µM) |  | 
C[C@H](CO)[C@H](C)CC[C@@H](C)[C@H]1C[C@@H](O)[C@@H]2[C@]1(C)CC[C@@H]1[C@@]3(C)CC[C@H](O)[C@H](O)[C@@H]3[C@@H](O)C[C@]12O [CERTONARDOSTEROL M] |  |  |  |  |  |  |  |  |  |  |  |  |  |  | 30 (≈ 62.2 µM) | > 30 | > 30 | > 30 | > 30 |  | 
COc1cccc2c1C(=O)c1c(O)c3c(c(O)c1C2=O)C[C@@](O)(C(=O)CO)C[C@@H]3O[C@H]1C[C@H](N)[C@H](O)[C@H](C)O1 [DOXORUBICIN] |  |  |  |  |  |  |  |  |  |  |  |  |  |  | 0.02 (≈ 0.0368 µM) | 0.17 (≈ 0.313 µM) | 0.02 (≈ 0.0368 µM) | 0.06 (≈ 0.11 µM) | 0.03 (≈ 0.0552 µM) |  | 
C[C@@H](O)[C@H]1C(=O)N2C(C(=O)O)=C(S[C@@H]3CN[C@H](C(=O)N(C)C)C3)[C@H](C)[C@H]12 [MEROPENEM] |  |  |  |  |  |  |  |  |  |  | 0.004 (≈ 0.0104 µM) | 0.2 (≈ 0.522 µM) | 0.39 (≈ 1.02 µM) | 0.1 (≈ 0.261 µM) |  |  |  |  |  | 0.01 (≈ 0.0261 µM) | 
